Measurements taken from patent publication US20250290117A1, “MOLECULAR PHENOTYPIC ANTIMICROBIAL SUSCEPTIBILITY TESTING” (priority 2024, published 2025).

Legend:
E. coli = assay: Molecular phenotypic antimicrobial susceptibility test with direct PCR (no extraction DNA purification step); type: cell-based, Escherichia coli; details: E. coli isolate JJ1887, direct PCR
Procedure: (§1) Detection of Molecular Phenotypic Antimicrobial Susceptibility. Disclosed herein are the methods for the detection of phenotypic antimicrobial susceptibility via molecular methods. The present invention describes how a specimen 100 with a known microbial load is incubated and then exposed to a panel of antimicrobial agents to determine sensitivity (prevention of growth) or resistance (allowance of growth) to the specific antimicrobial agents tested utilizing molecular methods.
Sample Collection. Specimens 100 are collected from patients using sterile collection processes that are employed in routine clinical care. Specimens are transported to the testing facility in boric acid preservative. Specimens 100 are subsequently divided into a first sample 104 and a second sample 108.
Preparation of the Specimens for Testing. The specimens 100 are put through a pathogen identification process using PCR technology (e.g., using the first sample 104). The process for pathogen isolation includes steps of harvesting the pathogen (e.g., via centrifugation), isolating pathogen DNA via a DNA isolation and/or purification kit, and performing PCR on the pathogen DNA via PCR components (e.g., primers, enzymes, buffers) as would be known to the skilled artisan. Simultaneously, an additional aliquot of the same specimen (e.g., the second sample 108) is placed with liquid culture media and incubated for 4-6 hours. This aliquot is used for antimicrobial susceptibility testing if indicated based on the pathogen detection results. After pathogen identification is completed and if more than 10,000 cells/mL of bacteria (e.g., eligible bacteria) are detected in the source specimen, the second sample 108 then enters the antimicrobial susceptibility phase of testing. Specimens 100 with lower pathogen loads could also be utilized in the antibiotic susceptibility phase of testing with or without a longer incubation period.
(§2) Preparation of Antimicrobial Susceptibility Testing Plates. Antimicrobial solutions are prepared at known concentrations. The specific antimicrobials and their concentrations are selected based on the pathogen of interest and the described antimicrobial resistance breakpoints for that specimen pathogen and antimicrobial combination. These antimicrobials have been selected based on those commonly utilized by healthcare providers in routine clinical care for the specific type of suspected infection. The number and types of antimicrobials utilized can be customized based on the infection source, pathogen detected, patient-specific factors such as allergies or other health conditions (e.g., chronic kidney disease or concurrent medication use), or healthcare provider preferences such as antimicrobial availability or cost.
The antimicrobial solutions are prepared in liquid culture media (such as Muller Hinton Broth) to achieve the desired antimicrobial concentration and are then stored at −80° C. until use. For a given specimen, each antimicrobial is tested at a single or multiple antimicrobial concentration(s) which is its established breakpoints for sensitivity. The antimicrobial solutions are prepared and plated out for each specific pathogen. This allows ease of use on the day of testing after defrosting the plate 112. Table 1, which illustrates the results of molecular phenotypic antimicrobial susceptibility testing when more than one organism is present in the source specimen, provides an example of an antimicrobial plate 112 prepared for this purpose. Of note, control wells containing only culture media are present on all plates 112. This allows for evaluation of pathogen load when no antimicrobial is present.
Specimen Exposure to Antimicrobial Agents. The 1 mL aliquot of the specimen 100 previously mixed with culture media and incubated is obtained. Using optical density measurements as a guide, the specimen 100 is diluted to 0.5 McFarland. […]

[1] = test system: pathogens of clinical samples; assay: Molecular phenotypic antimicrobial susceptibility test of clinical samples, extraction DNA purification step prior to PCR (Table 6); type: cell-based
Procedure: as §1
(§3) Sample Collection. Specimens 100 are collected from patients using sterile collection processes that are employed in routine clinical care. Specimens are transported to the testing facility in boric acid preservative.
(§4) Preparation of the Specimens for Testing. […] The process for pathogen isolation includes steps of harvesting the pathogen (e.g., via centrifugation), isolating pathogen DNA via a DNA isolation and/or purification kit, and performing PCR on the pathogen DNA via PCR components (e.g., primers, enzymes, buffers) as would be known to the skilled artisan. […] This aliquot is used for antimicrobial susceptibility testing if indicated based on the pathogen detection results. […] Specimens 100 with lower pathogen loads could also be utilized in the antibiotic susceptibility phase of testing with or without a longer incubation period.
as §2
(§5) The antimicrobial solutions are prepared in liquid culture media (such as Muller Hinton Broth) to achieve the desired antimicrobial concentration and are then stored at −80° C. until use. For a given specimen, each antimicrobial is tested at a single or multiple antimicrobial concentration(s) which is its established breakpoints for sensitivity. The antimicrobial solutions are prepared and plated out for each specific pathogen. […] This allows for evaluation of pathogen load when no antimicrobial is present.
(§6) Specimen Exposure to Antimicrobial Agents. The 1 mL aliquot of the specimen 100 previously mixed with culture media and incubated is obtained. Using optical density measurements as a guide, the specimen 100 is diluted to 0.5 McFarland.
(§7) Antimicrobial exposure plates are typically placed into an incubator for 12-16 hours.
(§8) Nucleic Acid Amplification of Antimicrobial Agent Exposed Pathogens. The antimicrobial exposure plate is removed after the period of incubation. The specimen then undergoes a purification or lysis step. For example, the specimen may undergo a purification step (e.g., magnetic bead-based or other separation protocol to isolate genetic material). In another example, the specimen may undergo a cell lysis step. For example, buffer (e.g., lysis buffer) may be added and incubated in the thermal cycler for preparation for direct PCR. Next, the specimen may undergo a polymerase chain reaction (PCR) testing protocol, whereby a semi-quantitative PCR method is utilized. This may be completed either with or without a specific extraction protocol step. The pathogens can be individually targeted and detected, or a universal genetic sequence can be utilized to detect the antimicrobial susceptibility of the specimen as a whole.

[2] = test system: pathogens of clinical samples; assay: Molecular phenotypic antimicrobial susceptibility test of clinical samples, direct PCR without a separate DNA purification step (Table 6); type: cell-based
Procedure: as §1, §3, §4, §2, §5, §6, §7, §8

[3] = E. faecalis, clinical sample of r93-r99
[4] = E. faecalis, clinical sample of r100-r106
[5] = E. faecalis, clinical sample of r107-r113
[6] = E. faecalis, clinical sample of r114-r120
[7] = E. faecalis, clinical sample of r151-r157
[8] = S. aureus, clinical sample of r85-r92

`O=C(O)c1cn(C2CC2)c2cc(N3CCNCC3)c(F)cc2c1=O` [Ciprofloxacin] was tested, and the “Ct at Sensitive Breakpoint” value (E. coli; Ct at control (average) 12.832) was 12.215 and the “Molecular Antimicrobial Susceptibility Result” value (E. coli; at sensitive breakpoint) was “Resistant”.
`CN[C@H](CC(C)C)C(=O)N[C@H]1C(=O)N[C@@H](CC(N)=O)C(=O)N[C@H]2C(=O)N[C@H]3C(=O)N[C@H](C(=O)N[C@H](C(=O)O)c4cc(O)cc(O)c4-c4cc3ccc4O)[C@H](O)c3ccc(c(Cl)c3)Oc3cc2cc(c3O[C@@H]2O[C@H](CO)[C@@H](O)[C@H](O)[C@H]2O[C@H]2C[C@](C)(N)[C@H](O)[C@H](C)O2)Oc2ccc(cc2Cl)[C@H]1O` [Vancomycin] was tested, and the “Molecular Antibiotic Susceptibility Result” value [1, 3] was “Sensitive (Antimicrobial wells with pathogen load detected below the control wells (typically >2 cycle thresholds later) may be reported as Sensitive)”, the “Molecular Antibiotic Susceptibility Result” value [1, 4] was “sensitive” and the Ct ([1]; E. faecalis, clinical sample of r100-r106, Ct Control Avg 23.073) was 37.981. The “Molecular Antibiotic Susceptibility Result” value [1, 5] was “sensitive”, the Ct ([1]; E. faecalis, clinical sample of r107-r113, Ct Control Avg 22.144) was 32.184 and the “Molecular Antibiotic Susceptibility Result” value [1, 6] was “Sensitive (Antimicrobial wells with pathogen load detected below the control wells (typically >2 cycle thresholds later) may be reported as Sensitive)”. The Ct ([1]; E. faecalis, clinical sample of r114-r120, Ct Control Avg 20.822) was 34.122, the “Molecular Antibiotic Susceptibility Result” value [1, 7] was “Sensitive (Antimicrobial wells with pathogen load detected below the control wells (typically >2 cycle thresholds later) may be reported as Sensitive)” and the Ct ([1]; E. faecalis, clinical sample of r151-r157, Ct Control Avg 20.56) was “Undet”. The “Molecular Antibiotic Susceptibility Result” value [1, 8] was “Resistant”, the “Molecular Antibiotic Susceptibility Result” value [2, 3] was “Sensitive (Antimicrobial wells with pathogen load detected below the control wells (typically >2 cycle thresholds later) may be reported as Sensitive)” and the Ct ([2]; E. faecalis, clinical sample of r93-r99, Ct control avg 22.011) was 30.062. The “Molecular Antibiotic Susceptibility Result” value [2, 4] was “sensitive”, the Ct ([2]; E. faecalis, clinical sample of r100-r106, Ct control avg 21.027) was 35.563 and the “Molecular Antibiotic Susceptibility Result” value [2, 5] was “sensitive”. The Ct ([2]; E. faecalis, clinical sample of r107-r113, Ct control avg 20.529) was 29.81, the “Molecular Antibiotic Susceptibility Result” value [2, 6] was “Sensitive (Antimicrobial wells with pathogen load detected below the control wells (typically >2 cycle thresholds later) may be reported as Sensitive)” and the “Molecular Antibiotic Susceptibility Result” value [2, 7] was “Sensitive (Antimicrobial wells with pathogen load detected below the control wells (typically >2 cycle thresholds later) may be reported as Sensitive)”. For the same compound, the Ct ([2]; E. faecalis, clinical sample of r151-r157, Ct control avg 18.551) was 35.428, the “Molecular Antibiotic Susceptibility Result” value [2, 8] was “Resistant” and the Ct ([2]; S. aureus, clinical sample of r85-r92, Ct control avg 20.309) was 21.258.
